This passage reports IC50 results from ChEMBL document CHEMBL1155715, “New natural epothilones from Sorangium cellulosum, strains So ce90/B2 and So ce90/D13: isolation, structure elucidation, and SAR studies” (J Nat Prod, 2001).

In this assay the test system is L929. Nature of the assay: Cytotoxicity against mouse L929 cells. Format: cell-based.

The structures appear in SMILES notation. In brackets after ≈: the same amount, converted by molar mass.

Broadly, the IC50 is the midpoint of a concentration-inhibition curve. In turn, `C/C(=C\c1csc(C)n1)[C@@H]1C/C=C/CCC[C@H](C)[C@H](O)[C@@H](C)C(=O)[C@@H](C)[C@@H](O)CC(=O)O1` came in with an IC50 of 0.4 µg/mL (≈ 0.863 µM).
With `C/C1=C/C[C@@H](/C(C)=C/c2csc(C)n2)OC(=O)C[C@H](O)C(C)(C)C(=O)[C@H](C)[C@@H](O)[C@@H](C)CCC1` [EPOTHILONE D], the IC50 (read-out: IC50) amounted to 0.02 µg/mL (≈ 0.0407 µM).
Take `C/C(=C\c1csc(C)n1)[C@@H]1C[C@@H]2O[C@@H]2CCC[C@H](C)[C@H](O)[C@@H](C)C(=O)[C@@H](C)[C@@H](O)CC(=O)O1` [EPOTHILONE A2]: the IC50 (read-out: IC50) was 0.007 µg/mL (≈ 0.0146 µM).
As to `Cc1nc(/C=C/[C@@H]2C/C=C\CCC[C@H](C)[C@H](O)[C@@H](C)C(=O)C(C)(C)[C@@H](O)CC(=O)O2)cs1` [EPOTHILONE C8], the IC50 (read-out: IC50) worked out at 0.25 µg/mL (≈ 0.539 µM).
Take `C/C1=C/C[C@@H](/C(C)=C/c2coc(C)n2)OC(=O)C[C@H](O)C(C)(C)C(=O)[C@H](C)[C@@H](O)[C@@H](C)CCC1` [EPOTHILONE H2]: where the note is “read-out: IC50”, the concentration for half-maximal inhibition (IC50) worked out at 0.011 µg/mL (≈ 0.0231 µM).
Still for that read-out and setting: as for `C/C(=C\c1csc(C)n1)[C@@H]1C/C=C\CCC[C@H](C)[C@H](O)[C@@H](C)C(=O)[C@H](C)[C@@H](O)CC(=O)O1` [EPOTHILONE C1], the figure is 0.9 µg/mL (≈ 1.94 µM); as for `C/C1=C/C[C@@H](/C(C)=C/c2csc(C)n2)OC(=O)C[C@H](O)C(C)(C)C(=O)[C@H](C)[C@@H](O)/C(C)=C/CC1` [EPOTHILONE D5], 0.2 µg/mL (≈ 0.408 µM).
Same read-out and setting: the figure for `C/C(=C\c1csc(C)n1)[C@@H]1C/C=C\CCCC[C@H](O)[C@@H](C)C(=O)C(C)(C)[C@@H](O)CC(=O)O1` [EPOTHILONE C4] is 0.8 µg/mL (≈ 1.73 µM); for `C/C(=C\c1csc(C)n1)[C@@H]1C/C=C\CCCC(C)C[C@H](C)[C@H](O)[C@@H](C)C(=O)[C@@H](C)[C@@H](O)CC(=O)O1` (some centres not stated) [EPOTHILONE I4] it is 0.3 µg/mL (≈ 0.593 µM); for `C/C1=C/C[C@@H](/C(C)=C/c2csc(C)n2)OC(=O)C[C@H](O)C(C)(C)C(=O)[C@H](C)[C@@H](O)[C@@H](C)CC(C)CCC1` (some centres not stated) [EPOTHILONE I3] it is 0.6 µg/mL (≈ 1.12 µM).
Regarding `C/C(=C\c1csc(C)n1)[C@@H]1C/C=C\CCC[C@H](C)[C@H](O)[C@@H](C)C(=O)[C@@H](C)[C@@H](O)CC(=O)O1` [EPOTHILONE C2], the concentration for half-maximal inhibition (IC50) (read-out: IC50) was found to be 0.8 µg/mL (≈ 1.73 µM).
Turning to `C/C(=C\c1csc(C)n1)[C@@H]1C/C=C/CCC[C@H](C)[C@H](O)[C@@H](C)C(=O)[C@H](C)[C@@H](O)CC(=O)O1`, it took 0.08 µg/mL (≈ 0.173 µM) to reach half-maximal inhibition (IC50).
With `CCC(=O)[C@@H](C)CCC/C(C)=C\C[C@H](O)/C(C)=C/c1csc(C)n1`, the IC50 (read-out: IC50) is over 4 µg/mL.
Same read-out and setting: as for `C/C(=C\c1csc(C)n1)[C@@H]1C[C@@H]2O[C@@H]2CCC[C@H](C)[C@H](O)[C@@H](C)C(=O)C(C)(C)[C@@H](O)CC(=O)O1` [EPOTHILONE A], the figure is 0.004 µg/mL (≈ 0.0081 µM); as for `Cc1nc(/C=C(\CO)[C@@H]2C[C@@H]3O[C@@H]3CCC[C@H](C)[C@H](O)[C@@H](C)C(=O)C(C)(C)[C@@H](O)CC(=O)O2)cs1` [EPOTHILONE A9], 0.1 µg/mL (≈ 0.196 µM).
For `C/C(=C\c1csc(C)n1)[C@@H]1C/C=C\CCC[C@H](C)[C@H](O)CC(=O)C(C)(C)[C@@H](O)CC(=O)O1` [EPOTHILONE C3], the IC50 (read-out: IC50) was 1.5 µg/mL (≈ 3.24 µM).
On to `Cc1nc(/C=C(\CO)[C@@H]2C/C=C\CCC[C@H](C)[C@H](O)[C@@H](C)C(=O)C(C)(C)[C@@H](O)CC(=O)O2)cs1` [EPOTHILONE C9], for which the half-maximal inhibitory concentration (IC50) (read-out: IC50) came to 0.2 µg/mL (≈ 0.405 µM).
Turning to `C/C(=C\c1csc(C)n1)[C@@H]1C/C=C\CCCC(C)C[C@H](C)[C@H](O)[C@@H](C)C(=O)C(C)(C)[C@@H](O)CC(=O)O1` (some centres not stated) [EPOTHILONE I2], the IC50 (read-out: IC50) was determined as 0.4 µg/mL (≈ 0.77 µM).
For the molecule `C/C(=C\c1csc(C)n1)[C@@H]1C/C=C\CCCCC[C@H](C)[C@H](O)[C@@H](C)C(=O)C(C)(C)[C@@H](O)CC(=O)O1` [EPOTHILONE I1], for the setting “read-out: IC50”, the IC50 is 0.8 µg/mL (≈ 1.58 µM).
In the case of `C/C(=C\c1coc(C)n1)[C@@H]1C[C@@H]2O[C@]2(C)CCC[C@H](C)[C@H](O)[C@@H](C)C(=O)C(C)(C)[C@@H](O)CC(=O)O1` [EPOTHILONE G2], the concentration for half-maximal inhibition (IC50) (read-out: IC50) was 0.001 µg/mL (≈ 0.00203 µM).
Regarding `C/C1=C/C[C@@H](/C(C)=C/c2csc(C)n2)OC(=O)C[C@H](O)[C@H](C)C(=O)[C@H](C)[C@@H](O)[C@@H](C)CCC1` [EPOTHILONE D2], the concentration for half-maximal inhibition (IC50) (read-out: IC50) was 0.007 µg/mL (≈ 0.0147 µM).
Take `C/C(=C\c1coc(C)n1)[C@@H]1C/C=C\CCC[C@H](C)[C@H](O)[C@@H](C)C(=O)C(C)(C)[C@@H](O)CC(=O)O1` [EPOTHILONE H1]: under “read-out: IC50”, the IC50 was found to be 0.12 µg/mL (≈ 0.26 µM).
Take `C/C(=C\c1csc(C)n1)[C@@H]1C/C=C\CC/C=C(\C)[C@H](O)[C@@H](C)C(=O)C(C)(C)[C@@H](O)CC(=O)O1` [EPOTHILONE C5]: where the note is “read-out: IC50”, the half-inhibitory concentration (IC50) was found to be 1.5 µg/mL (≈ 3.15 µM).
As to `C/C(=C\c1csc(C)n1)[C@@H](O)C/C=C\CCC[C@H](C)[C@H](O)[C@@H](C)C(=O)C(C)C`, under “read-out: IC50”, the IC50 amounted to 0.8 µg/mL (≈ 1.96 µM).
In the case of `C/C(=C\c1csc(C)n1)[C@@H]1C[C@@H]2O[C@@H]2CCC[C@H](C)[C@H](O)[C@@H](C)C(=O)[C@H](C)[C@@H](O)CC(=O)O1` [EPOTHILONE A1], the half-maximal inhibitory concentration (IC50) (read-out: IC50) came to 0.02 µg/mL (≈ 0.0417 µM).
As to `C/C1=C/C[C@@H](/C(C)=C/c2csc(C)n2)OC(=O)C[C@H](O)[C@H](C)C(=O)[C@H](C)[C@@H](O)[C@@H](C)CC(C)CCC1` (some centres not stated) [EPOTHILONE I5], for the setting “read-out: IC50”, the IC50 amounted to 0.1 µg/mL (≈ 0.192 µM).
As for `C/C1=C/C[C@@H](/C(C)=C/c2csc(C)n2)OC(=O)C[C@H](O)[C@@H](C)C(=O)[C@H](C)[C@@H](O)[C@@H](C)CC(C)CCC1` (some centres not stated) [EPOTHILONE I6], under “read-out: IC50”, the IC50 came to 0.6 µg/mL (≈ 1.15 µM).
Take `C/C(=C\c1csc(CO)n1)[C@@H]1C[C@@H]2O[C@]2(C)CCC[C@H](C)[C@H](O)[C@@H](C)C(=O)C(C)(C)[C@@H](O)CC(=O)O1` [EPOTHILONE F]: the IC50 (read-out: IC50) came out at 0.0015 µg/mL (≈ 0.00286 µM).
As for `C/C(=C\c1csc(C)n1)[C@@H]1C/C=C\C=C\C[C@H](C)[C@H](O)[C@@H](C)C(=O)C(C)(C)[C@@H](O)CC(=O)O1` [EPOTHILONE C6], for the setting “read-out: IC50”, the IC50 stood at 0.12 µg/mL (≈ 0.252 µM).
For `Cc1nc(/C=C/[C@@H]2C[C@@H]3O[C@@H]3CCC[C@H](C)[C@H](O)[C@@H](C)C(=O)C(C)(C)[C@@H](O)CC(=O)O2)cs1` [EPOTHILONE A8], the IC50 (read-out: IC50) amounted to 0.02 µg/mL (≈ 0.0417 µM).
Still for that read-out and setting: the figure for `C/C(=C\c1csc(C)n1)[C@@H]1C[C@@H]2O[C@]2(C)CCC[C@H](C)[C@H](O)[C@@H](C)C(=O)C(C)(C)[C@@H](O)CC(=O)O1` [PATUPILONE] is 0.001 µg/mL (≈ 0.00197 µM); for `C/C1=C/C[C@@H](/C(C)=C/c2csc(C)n2)OC(=O)C[C@H](O)[C@@H](C)C(=O)[C@H](C)[C@@H](O)[C@@H](C)CCC1` [EPOTHILONE D1] it is 0.035 µg/mL (≈ 0.0733 µM); for `C/C(=C\c1csc(C)n1)[C@@H]1C/C=C\CCC[C@H](C)[C@H](O)[C@@H](C)C(=O)C(C)(C)[C@@H](O)CC(=O)O1` [EPOTHILONE C] it is 0.06 µg/mL (≈ 0.126 µM).
On the same count and under the same terms, as for `C/C(=C\c1csc(CO)n1)[C@@H]1C[C@@H]2O[C@@H]2CCC[C@H](C)[C@H](O)[C@@H](C)C(=O)C(C)(C)[C@@H](O)CC(=O)O1` [EPOTHILONE E], the figure is 0.01 µg/mL (≈ 0.0196 µM).
As to `C/C(=C\c1coc(C)n1)[C@@H]1C[C@@H]2O[C@@H]2CCC[C@H](C)[C@H](O)[C@@H](C)C(=O)C(C)(C)[C@@H](O)CC(=O)O1` [EPOTHILONE G1], the half-inhibitory concentration (IC50) (read-out: IC50) worked out at 0.006 µg/mL (≈ 0.0126 µM).
Take `C/C(=C\c1csc(C)n1)[C@H]1OC(=O)C[C@H](O)C(C)(C)C(=O)[C@H](C)[C@@H](O)[C@@H](C)CCC/C=C\[C@@H]1O` [EPOTHILONE C7]: the IC50 (read-out: IC50) was determined as 0.025 µg/mL (≈ 0.0506 µM).
`CCC(=O)[C@@H](C)CCC/C=C\C[C@H](O)/C(C)=C/c1csc(C)n1`: the half-inhibitory concentration (IC50) (read-out: IC50) was over 4 µg/mL.
